Data on 4 compounds can be found in PubChem BioAssay AID1259407 (Chemical Carcinogenesis Research Information System (CCRIS), 2018).

Each structure is given as a SMILES string. Active and inactive are the calls of the source. No rule for the calls is given here.

The series has as its system CCRIS mutagenicity, Ames/micronucleus/aberration tests. Nature of the series: CCRIS mutagenicity studies. To be noted: Test System: AMES SALMONELLA TYPHIMURIUM
Where [1] appears, read: Strain/Indicator: TA98, Metabolic Activation: NONE, Method: STANDARD PLATE.
Setting [2] is: Strain/Indicator: TA100, Metabolic Activation: NONE, Method: STANDARD PLATE.

For the compound `CC(=O)NC[C@@H](O)COc1cccc2ccccc12`, the mutagenic call was “inactive; negative” (Strain/Indicator: TA98, Metabolic Activation: RAT, LIVER, S-9, AROCLOR 1254, Method: PREINCUBATION); “inactive; negative” (Strain/Indicator: TA100, Metabolic Activation: RAT, LIVER, S-9, AROCLOR 1254, Method: PREINCUBATION); “inactive; negative” (Strain/Indicator: TA102, Metabolic Activation: RAT, LIVER, S-9, AROCLOR 1254, Method: PREINCUBATION); “inactive; negative” (Strain/Indicator: TA104, Metabolic Activation: RAT, LIVER, S-9, AROCLOR 1254, Method: PREINCUBATION); “inactive; negative” (Strain/Indicator: TA1535, Metabolic Activation: RAT, LIVER, S-9, AROCLOR 1254, Method: PREINCUBATION); “inactive; negative” (Strain/Indicator: TA1538, Metabolic Activation: RAT, LIVER, S-9, AROCLOR 1254, Method: PREINCUBATION). For the same compound, the mutagenic call (Strain/Indicator: YG1021, Metabolic Activation: RAT, LIVER, S-9, AROCLOR 1254, Method: PREINCUBATION) was “inactive; negative”; the mutagenic call (Strain/Indicator: YG1024, Metabolic Activation: RAT, LIVER, S-9, AROCLOR 1254, Method: PREINCUBATION) was “inactive; negative”; the mutagenic call (Strain/Indicator: YG1026, Metabolic Activation: RAT, LIVER, S-9, AROCLOR 1254, Method: PREINCUBATION) is “inactive; negative”; the mutagenic call (Strain/Indicator: YG1029, Metabolic Activation: RAT, LIVER, S-9, AROCLOR 1254, Method: PREINCUBATION) was “inactive; negative”; the mutagenic call (Strain/Indicator: YG1041, Metabolic Activation: RAT, LIVER, S-9, AROCLOR 1254, Method: PREINCUBATION) is “inactive; negative”; the mutagenic call (Strain/Indicator: YG1042, Metabolic Activation: RAT, LIVER, S-9, AROCLOR 1254, Method: PREINCUBATION) was “inactive; negative”. For the same compound, the mutagenic call (Strain/Indicator: YG3003, Metabolic Activation: RAT, LIVER, S-9, AROCLOR 1254, Method: PREINCUBATION) is “inactive; negative”.

Turning to `OC[C@H]1O[C@@H](n2cnc3c2ncn2ccnc32)[C@H](O)[C@@H]1O`, where the note is “Strain/Indicator: TA100, Metabolic Activation: NONE, Method: PREINCUBATION”, the mutagenic call is “inactive; negative”.

Take `O=[N+]([O-])c1c2c(c3ccc4cccc5ccc1c3c45)CCCC2O` (stereo unspecified): the mutagenic call was “inactive; negative” under setting [1] and “inactive; negative” under setting [2].

As to `CCOC(=O)C1(CCCCCCOCc2cccs2)CO1` (stereo unspecified), the mutagenic call under setting [1] is “active; positive”; the mutagenic call (Strain/Indicator: TA98, Metabolic Activation: S-9, Method: STANDARD PLATE) was “active; positive”; the mutagenic call under setting [2] is “inactive; negative”; the mutagenic call (Strain/Indicator: TA100, Metabolic Activation: S-9, Method: STANDARD PLATE) was “inactive; negative”; the mutagenic call (Strain/Indicator: TA102, Metabolic Activation: NONE, Method: STANDARD PLATE) was “inactive; negative”; the mutagenic call (Strain/Indicator: TA102, Metabolic Activation: S-9, Method: STANDARD PLATE) is “inactive; negative”. Further, the mutagenic call runs as follows: (Strain/Indicator: TA1535, Metabolic Activation: NONE, Method: STANDARD PLATE) “inactive; negative”; (Strain/Indicator: TA1535, Metabolic Activation: S-9, Method: STANDARD PLATE) “inactive; negative”; (Strain/Indicator: TA1537, Metabolic Activation: NONE, Method: STANDARD PLATE) “inactive; negative”; (Strain/Indicator: TA1537, Metabolic Activation: S-9, Method: STANDARD PLATE) “inactive; negative”.
